# What was measured:
# Assay in all cases: 50% growth inhibitory concentration (IC50) determination assay
# Assay type in all cases: cell-based
# S. aureus (ATCC29213) = conditions: Staphylococcus aureus, Iso-Sensitest broth, 0.098 = detection limit
# Description: (§1) Stock compounds in DMSO were serially two-fold diluted (range from 50 to 0.097 μM final concentration) in 384 wells microtiter plates and inoculated with 49 μL the bacterial suspension in Iso-Sensitest broth medium to have a final cell concentration of ˜5×10^5 CFU/mL in a final volume/well of 50 μL/well. Microtiter plates were incubated at 35±2° C. Bacterial cell growth was determined with the measurement of optical density at λ=600 nm each 20 minutes over a time course of 16 h. […] GP-6 (Example 4.131 disclosed in WO 2012/125746 A1) was used as the reference compound in Table 6-8. […] The data of IC50 over S. aureus (ATCC29213), K. pneumoniae (ATCC10031), and A. baumannii (ATCC17978) are illustrated in Table 6.
# A. baumannii (ATCC17978) = conditions: Acinetobacter baumannii, ATCC17978, A. baumannii ATCC17978; Iso-Sensitest broth; 0.098 = detection limit
# Description: as §1
# [1] = test system: K. pneumoniae (ATCC10031); conditions: Klebsiella pneumoniae, Iso-Sensitest broth, 0.098 = detection limit
# Description: as §1
SMILES,IC50 (S. aureus (ATCC29213)) [µM],IC50 (A. baumannii (ATCC17978)) [µM],IC50 [1] [µM]
CNc1cc(F)cc2c1[nH]c1ncc(-c3cnc4c(c3)c(=O)c(C(=O)O)cn4C)c(N3CCCOCC3)c12 [Example 1.60],< 0.098,0.248,< 0.098
CNc1cc(F)c(F)c2c1[nH]c1ncc(-c3cnc4c(c3)c(=O)c(C(=O)O)cn4C3CCNC3)c(N3CCCC3)c12 (stereo not shown) [Example 1.65],< 0.098,0.378,< 0.098
CNc1cc(F)cc2c1[nH]c1ncc(-c3cnc4c(c3)c(=O)c(C(=O)O)cn4C)c(N3CCSCC3)c12 [Example 1.66],< 0.098,0.415,< 0.098
CNc1cc(F)cc2c1[nH]c1ncc(-c3cnc4c(c3)c(=O)c(C(=O)O)cn4CC(C)(C)N(C)C)c(N3CCOCC3)c12 [Example 1.69],< 0.098,0.438,< 0.098
CNc1cc(F)cc2c1[nH]c1ncc(-c3cnc4c(c3)c(=O)c(C(=O)O)cn4C(C)CN(C)C)c(N3CCOCC3)c12 (stereo not shown) [Example 1.70],< 0.098,0.619,< 0.098
CNc1cc(F)c(F)c2c1[nH]c1ncc(-c3cnc4c(c3)c(=O)c(C(=O)O)cn4NC)c(N(C)C)c12 [Example 1.72],< 0.098,< 0.098,< 0.098
CCN(CC)CCn1cc(C(=O)O)c(=O)c2cc(-c3cnc4[nH]c5c(NC)cc(F)c(F)c5c4c3N3CCOCC3)cnc21 [Example 1.73],< 0.098,0.238,< 0.098
CNc1cc(F)c(F)c2c1[nH]c1ncc(-c3cnc4c(c3)c(=O)c(C(=O)O)cn4C)c(N3CCC(N(C)C4CC4)C3)c12 (stereo not shown) [Example 1.116],,0.355,
CNc1cc(F)c(Cl)c2c1[nH]c1ncc(-c3cnc4c(c3)c(=O)c(C(=O)O)cn4C)c(N(C)C)c12 [Example 1.117],,0.164,
CNc1cc(F)cc2c1[nH]c1ncc(-c3cnc4c(c3)c(=O)c(C(=O)O)cn4C)c(N3CCC(N(C)C4CC4)C3)c12 (stereo not shown) [Example 1.118],,0.521,
CNc1cc(F)c(F)c2c1[nH]c1ncc(-c3cnc4c(c3)c(=O)c(C(=O)O)cn4C)c(N3CCC(O)(C(F)(F)F)C3)c12 (stereo not shown) [Example 1.129],< 0.098,0.302,
CNc1cc(F)c(F)c2c1[nH]c1ncc(-c3cnc4c(c3)c(=O)c(C(=O)O)cn4C)c(N3C[C@H](F)[C@@H](N(C)C)C3)c12 [Example 1.159],,0.189,
CNc1cc(F)c(F)c2c1[nH]c1ncc(-c3cnc4c(c3)c(=O)c(C(=O)O)cn4NC)c(N3CC[C@@H](N(C)C)C3)c12 [Example 1.257],,0.201,
CNc1cc(Cl)cc2c1[nH]c1ncc(-c3cnc4c(c3)c(=O)c(C(=O)O)cn4C)c(N3CC4[C@H](CC[C@H]4N(C)C)C3)c12 (stereo partly shown) [Example 1.285],,0.253,
CNc1cc(F)c(F)c2c1[nH]c1ncc(-c3cnc4c(c3)c(=O)c(C(=O)O)cn4C)c(N3CC4C(O)CO[C@@H]4C3)c12 (stereo partly shown) [Example 1.287],,0.502,
CNc1cc(F)c(F)c2c1[nH]c1ncc(-c3cnc4c(c3)c(=O)c(C(=O)O)cn4C)c(N3CC4[C@H](CC[C@@H]4N(C)C)C3)c12 (stereo partly shown) [Example 1.288],,0.269,
CNc1cc(Cl)cc2c1[nH]c1ncc(-c3cnc4c(c3)c(=O)c(C(=O)O)cn4C)c(N3CC[C@H]4CN(C)C[C@H]43)c12 [Example 3.11A],,0.122,
CNc1cc(Cl)cc2c1[nH]c1ncc(-c3cnc4c(c3)c(=O)c(C(=O)O)cn4NC)c(N3CC[C@H]4CN(C)C[C@H]43)c12 [Example 3.12A],,0.081,
CNc1cc(Cl)cc2c1[nH]c1ncc(-c3cnc4c(c3)c(=O)c(C(=O)O)cn4C)c(N3C[C@H]4CC[C@H](N(C)C)[C@H]4C3)c12 [Example 3.20A],,0.149,
CNc1cc(Cl)cc2c1[nH]c1ncc(-c3cnc4c(c3)c(=O)c(C(=O)O)cn4C)c(N3C[C@@H]4CC[C@H](N(C)C)[C@@H]4C3)c12 [Example 3.20B],,0.252,
"CNc1cc(F)c(F)c2c1[nH]c1ncc(-c3cnc4c(c3)c(=O)c(C(=O)O)cn4C)c(N3CCN[C@H](C(F)(F)F)C3)c12 [Example 4.01A, (S)-6-(5,6-Difluoro-8-(methylamino)-4-(3-(trifluoromethyl)piperazin-1-yl)-9H-pyrido[2,3-b]indol-3-yl)-1-methyl-4-oxo-1,4-dihydro-1,8-naphthyridine-3-carboxylic acid]",,0.393,
"CNc1cc(F)c(F)c2c1[nH]c1ncc(-c3cnc4c(c3)c(=O)c(C(=O)O)cn4C)c(N3CCN[C@@H](C(F)(F)F)C3)c12 [Example 4.01B, (R)-6-(5,6-Difluoro-8-(methylamino)-4-(3-(trifluoromethyl)piperazin-1-yl)-9H-pyrido[2,3-b]indol-3-yl)-1-methyl-4-oxo-1,4-dihydro-1,8-naphthyridine-3-carboxylic acid]",,0.352,

# Source: patent US10662203B2, “Pyrido[2,3-b]indole compounds for the treatment and prophylaxis of bacterial infection” (Hoffmann-La Roche Inc., priority 2017, dated 2020)
